The record followed here is PMC8693655, “Functional Characterization of BrF3'H, Which Determines the Typical Flavonoid Profile of Purple Chinese Cabbage” (Frontiers in Plant Science, 2021).

The target of the experiment is T1, BrF3′H (BrF3′H-8267) (Brassica rapa, UniProt M4CYL5).
T1 construct: full-length ORF, 511 residues, C-terminal V5 and 6xHis tags (pYES-DEST52); yeast WAT11 microsomes with Arabidopsis reductase ATR1 as redox partner
The experiment in a line: HPLC of […]'-hydroxylation by yeast microsomes. The experiment is classed as biochemical. The conditions noted are these: 1 mM NADPH, 100 mM Tris-Cl pH 7.5, 30°C, 20 min, 10 μg microsomal protein, Arabidopsis ATR1 reductase.

Where two headings read alike, the source gives them in different places.

T1 sequence (M4CYL5 entry or part of it): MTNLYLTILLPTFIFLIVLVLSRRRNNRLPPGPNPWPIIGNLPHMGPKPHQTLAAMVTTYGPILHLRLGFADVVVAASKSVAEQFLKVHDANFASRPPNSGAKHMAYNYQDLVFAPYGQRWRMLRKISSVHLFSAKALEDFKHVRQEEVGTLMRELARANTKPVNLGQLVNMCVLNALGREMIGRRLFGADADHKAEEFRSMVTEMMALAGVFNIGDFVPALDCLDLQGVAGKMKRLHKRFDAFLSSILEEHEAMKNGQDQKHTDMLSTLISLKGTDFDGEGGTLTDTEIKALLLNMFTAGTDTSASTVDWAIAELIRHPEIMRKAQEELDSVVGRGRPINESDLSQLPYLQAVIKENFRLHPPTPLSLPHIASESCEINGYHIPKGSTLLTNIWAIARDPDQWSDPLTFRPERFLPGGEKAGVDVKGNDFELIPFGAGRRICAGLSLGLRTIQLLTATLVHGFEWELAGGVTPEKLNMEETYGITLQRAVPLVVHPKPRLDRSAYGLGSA

For the compound `O=C1c2c(O)cc(O)cc2OC(c2ccc(O)cc2)C1O` (racemic) [DHK, dihydrokaempferol], under “read-out: Substrates / DHK”, the Km is 3.6 mM.
With `O=C1CC(c2ccc(O)cc2)Oc2cc(O)cc(O)c21` (racemic) [Nar, naringenin], the Km (read-out: Substrates / Nar) was 1.72 ± 0.152 mM.
On to `O=c1c(O)c(-c2ccc(O)cc2)oc2cc(O)cc(O)c12` [K, kaempferol], for which the Km (read-out: Substrates / K) came out at 0.942 ± 0.065 mM.
